What was measured:
CDK2/Cyclin E1 complex = CDK2/Cyclin E1 complex (Homo sapiens, UniProt P24941); test: CDK2 kinase inhibition assay (Caliper/LabChip EZ Reader); format: biochemical; details: CDK2/Cyclin E1 0.5 nM, ATP 2 mM, 35 min at 27° C.
Procedure, shortened: (§1)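 Caliper/LabChip mobility-shift kinase assays at 27° C. CDK9/Cyclin T1 8 nM with 2 μM 5-FAM-CDK9tide, 10 mM MgCl2, 15 min; CDK12/Cyclin K 50 nM with 5-FAM-CDK9tide 2 μM, 2 mM MgCl2, 3 hr; CDK2/Cyclin E1 0.5 nM with 5-FAM-CDK7tide 2 μM, 2 mM MgCl2, 35 min; CDK7 35 min.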

[1] = target: CDK7/Cyclin H/MAT1 complex (Homo sapiens, UniProt P50613); test: CDK7 kinase inhibition assay (Caliper/LabChip EZ Reader); format: biochemical; details: CDK7/Cyclin H/MAT1 6 nM, ATP 2 mM, 35 min at 27° C.
Procedure, shortened: as §1

CDK9/Cyclin T1 complex = CDK9/Cyclin T1 complex (Homo sapiens, UniProt P50750); test: CDK9 kinase inhibition assay (Caliper/LabChip EZ Reader); format: biochemical; details: CDK9/Cyclin T1 8 nM, ATP 2 mM, 15 min at 27° C.
Procedure, shortened: as §1

[2] = target: T1, CDK12 (aa686-1082)/Cyclin K complex (Homo sapiens, UniProt Q9NYV4); test: CDK12 kinase inhibition assay (Caliper/LabChip EZ Reader); format: biochemical; details: CDK12 (aa686-1082)/Cyclin K 50 nM, ATP 2 mM, 3 hr at 27° C.
T1 construct: CDK12 (aa686-1082)/Cyclin K complex
Procedure, shortened: as §1

HCC70 cells = test: Inhibition of proliferation of HCC70 cells (CyQUANT Direct, 72 hour); format: cell-based, human; details: read-out: Inhibition of Proliferation of HCC70 Cells (calculated IC50)
Procedure: HCC70 cells: HCC70 cells are a cell line derived from human triple negative breast cancer. Representative compounds of the invention were tested at different concentrations (from 4 μM to […]; 0.5 log serial dilutions) for their ability to inhibit the proliferation of HCC70 cells. Known CDK inhibitors dinaciclib or N-((1S,3R)-3-((5-chloro-4-(1H-indol-3-yl) pyrimidin-2-yl)amino)cyclohexyl)-5-((E)-4-(dimethylamino)but-2-enamido)picolinamide and triptolide were used as positive controls. Cells were grown in ATCC-formulated RPMI-1640 Medium (ATCC 30-2001)+10% FBS. The cells were cultured at 37° C. in a humidified chamber in the presence of 5% CO2. Proliferation assays were conducted over a 72 hour time period. CyQUANT® Direct Cell Proliferation Assay (Life Technologies, Chicago, Ill. USA) was used to assess the anti-proliferative effects of the compounds following manufacturer's directions and utilizing the reagents supplied with the CyQUANT® Direct Cell kit.

CDK7/Cyclin H/MAT1 complex, sequence (P50613 whole entry): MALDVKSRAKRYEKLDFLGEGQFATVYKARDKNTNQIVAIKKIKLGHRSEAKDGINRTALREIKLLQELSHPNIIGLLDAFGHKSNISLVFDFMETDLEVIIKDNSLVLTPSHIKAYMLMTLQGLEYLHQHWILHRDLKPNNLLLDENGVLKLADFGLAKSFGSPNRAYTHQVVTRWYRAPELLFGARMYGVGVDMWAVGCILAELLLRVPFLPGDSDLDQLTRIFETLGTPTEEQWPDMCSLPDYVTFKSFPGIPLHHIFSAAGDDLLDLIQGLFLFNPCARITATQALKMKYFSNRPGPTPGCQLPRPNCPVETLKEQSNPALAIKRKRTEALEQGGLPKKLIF
CDK7/Cyclin H/MAT1 complex, sequence (P51946 whole entry partner): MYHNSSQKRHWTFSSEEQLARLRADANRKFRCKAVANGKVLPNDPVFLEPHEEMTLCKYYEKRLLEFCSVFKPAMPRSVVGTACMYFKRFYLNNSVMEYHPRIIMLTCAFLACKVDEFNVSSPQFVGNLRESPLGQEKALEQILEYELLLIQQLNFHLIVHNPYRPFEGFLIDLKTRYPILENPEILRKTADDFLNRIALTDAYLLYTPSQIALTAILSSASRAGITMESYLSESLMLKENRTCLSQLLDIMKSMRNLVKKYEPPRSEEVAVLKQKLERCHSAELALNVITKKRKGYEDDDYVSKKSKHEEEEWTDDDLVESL
CDK7/Cyclin H/MAT1 complex, sequence (P51948 whole entry partner): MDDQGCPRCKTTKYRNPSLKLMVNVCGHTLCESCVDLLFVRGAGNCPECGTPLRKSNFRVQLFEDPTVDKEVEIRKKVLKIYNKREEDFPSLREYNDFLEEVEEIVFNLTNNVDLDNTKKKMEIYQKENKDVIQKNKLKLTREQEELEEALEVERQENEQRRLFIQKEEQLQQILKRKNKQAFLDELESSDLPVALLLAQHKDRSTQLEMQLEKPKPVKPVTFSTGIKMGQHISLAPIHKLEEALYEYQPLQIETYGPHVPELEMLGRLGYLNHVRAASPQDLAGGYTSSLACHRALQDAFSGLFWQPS
CDK9/Cyclin T1 complex, sequence (P50750 whole entry): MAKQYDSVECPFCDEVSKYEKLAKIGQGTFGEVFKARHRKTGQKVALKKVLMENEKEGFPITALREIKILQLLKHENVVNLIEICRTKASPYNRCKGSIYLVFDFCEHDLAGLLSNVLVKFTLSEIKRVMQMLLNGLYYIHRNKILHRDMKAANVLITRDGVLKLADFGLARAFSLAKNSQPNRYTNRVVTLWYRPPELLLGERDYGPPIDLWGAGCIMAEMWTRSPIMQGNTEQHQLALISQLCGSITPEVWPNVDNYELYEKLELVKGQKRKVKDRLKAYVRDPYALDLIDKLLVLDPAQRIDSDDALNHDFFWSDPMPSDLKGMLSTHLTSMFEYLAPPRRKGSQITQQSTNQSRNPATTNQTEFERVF
CDK9/Cyclin T1 complex, sequence (O60563 whole entry partner): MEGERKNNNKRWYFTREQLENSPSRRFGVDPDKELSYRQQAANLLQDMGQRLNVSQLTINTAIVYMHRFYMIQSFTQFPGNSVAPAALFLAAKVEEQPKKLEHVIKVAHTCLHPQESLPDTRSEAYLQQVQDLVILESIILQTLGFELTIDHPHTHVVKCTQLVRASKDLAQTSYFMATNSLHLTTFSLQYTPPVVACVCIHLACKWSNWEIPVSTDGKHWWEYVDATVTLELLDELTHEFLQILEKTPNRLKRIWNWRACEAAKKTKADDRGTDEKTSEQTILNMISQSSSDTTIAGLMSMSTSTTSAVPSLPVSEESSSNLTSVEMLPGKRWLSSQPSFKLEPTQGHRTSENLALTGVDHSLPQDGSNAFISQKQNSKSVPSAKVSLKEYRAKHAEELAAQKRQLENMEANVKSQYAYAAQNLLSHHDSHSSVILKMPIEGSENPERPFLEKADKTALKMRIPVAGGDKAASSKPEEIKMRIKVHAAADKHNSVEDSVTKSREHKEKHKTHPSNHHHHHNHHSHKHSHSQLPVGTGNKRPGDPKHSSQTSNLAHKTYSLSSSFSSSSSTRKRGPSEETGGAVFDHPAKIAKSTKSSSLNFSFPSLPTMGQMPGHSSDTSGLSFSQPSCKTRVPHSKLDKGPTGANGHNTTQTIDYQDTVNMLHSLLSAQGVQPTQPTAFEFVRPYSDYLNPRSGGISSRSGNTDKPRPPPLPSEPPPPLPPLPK
T1 sequence (Q9NYV4 686-1082): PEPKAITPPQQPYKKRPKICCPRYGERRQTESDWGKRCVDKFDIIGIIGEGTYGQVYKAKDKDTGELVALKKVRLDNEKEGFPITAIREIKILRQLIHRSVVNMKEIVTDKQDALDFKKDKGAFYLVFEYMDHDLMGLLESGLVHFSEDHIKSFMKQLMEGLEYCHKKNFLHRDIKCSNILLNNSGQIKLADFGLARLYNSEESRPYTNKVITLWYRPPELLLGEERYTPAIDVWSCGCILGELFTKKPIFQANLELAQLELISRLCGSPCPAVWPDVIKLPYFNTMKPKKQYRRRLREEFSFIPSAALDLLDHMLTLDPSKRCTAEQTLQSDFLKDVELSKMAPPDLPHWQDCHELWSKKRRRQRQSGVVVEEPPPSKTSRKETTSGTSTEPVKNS
T1 sequence (O75909 whole entry partner, the tested form may be a part): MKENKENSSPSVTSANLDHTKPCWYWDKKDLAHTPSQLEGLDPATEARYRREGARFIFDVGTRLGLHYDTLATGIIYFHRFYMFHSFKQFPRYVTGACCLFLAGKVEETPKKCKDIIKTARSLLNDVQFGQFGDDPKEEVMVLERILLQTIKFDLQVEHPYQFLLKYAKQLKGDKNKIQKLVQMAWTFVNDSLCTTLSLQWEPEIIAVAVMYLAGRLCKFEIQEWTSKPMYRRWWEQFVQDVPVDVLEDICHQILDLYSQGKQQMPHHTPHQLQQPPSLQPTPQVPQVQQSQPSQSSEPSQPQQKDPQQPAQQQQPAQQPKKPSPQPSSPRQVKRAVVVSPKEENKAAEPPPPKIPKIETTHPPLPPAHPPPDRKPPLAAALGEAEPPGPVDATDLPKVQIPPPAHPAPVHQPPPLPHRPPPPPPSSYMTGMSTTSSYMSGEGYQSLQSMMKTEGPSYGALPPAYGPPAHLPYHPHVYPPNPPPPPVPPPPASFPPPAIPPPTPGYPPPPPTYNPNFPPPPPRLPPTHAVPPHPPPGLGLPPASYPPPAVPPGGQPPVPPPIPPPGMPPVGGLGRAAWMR

| Structure (SMILES) | IC50 (CDK2/Cyclin E1 complex) | IC50 [1] | IC50 (CDK9/Cyclin T1 complex) | IC50 [2] | IC50 (HCC70 cells) |
| --- | --- | --- | --- | --- | --- |
| FC(F)(F)c1cnc(N[C@H]2CCCNC2)nc1-c1c[nH]c2cc(-c3cccc(Oc4ccccc4)c3)ccc12 [Compound 341] | ≥ 5000 nM | 200 to 5000 nM | ≥ 5000 nM | ≥ 5000 nM | 1000 to 5000 nM |
| CCP(=O)(CC)c1ccc2c(-c3nc(NC4CCCNC4)ncc3C(F)(F)F)c[nH]c2c1 (stereo not drawn) [Compound 379] | ≥ 5000 nM | 20 to 200 nM | ≥ 5000 nM | ≥ 5000 nM | 1000 to 5000 nM |
| N#Cc1ccc2c(-c3nc(N[C@@H]4CNC[C@H](O)C4)ncc3C(F)(F)F)c[nH]c2c1 [Compound 370] | ≥ 5000 nM | 20 to 200 nM | ≥ 5000 nM | 200 to 5000 nM | 100 to 1000 nM |
| CCC1(O)CCN(C(=O)c2ccc3c(-c4nc(NC5CCCNC5)ncc4C(F)(F)F)c[nH]c3c2)C1 (stereo not drawn) [Compound 309] | ≥ 5000 nM | 20 to 200 nM | ≥ 5000 nM | 200 to 5000 nM | 1000 to 5000 nM |
| CNC(=O)c1cccc2c(-c3nc(NC4CCCNC4)ncc3C(F)(F)F)cn(C)c12 (stereo not drawn) [Compound 307] | ≥ 5000 nM | ≥ 5000 nM | ≥ 5000 nM | ≥ 5000 nM | 1000 to 5000 nM |
| FC(F)(F)c1cnc(NC2CCCNC2)nc1-c1c[nH]c2cc(-c3ccnc4ccccc34)ccc12 (stereo not drawn) [Compound 339] | ≥ 5000 nM | 20 to 200 nM | ≥ 5000 nM | 200 to 5000 nM | 1000 to 5000 nM |
| COCn1cc(-c2nc(NC3CCCNC3)ncc2C(F)(F)F)c2cccc(C#N)c21 (stereo not drawn) [Compound 295] | ≥ 5000 nM | 20 to 200 nM | ≥ 5000 nM | ≥ 5000 nM | 1000 to 5000 nM |
| CN1CCC[C@H](Nc2ncc(C(F)(F)F)c(-c3c[nH]c4cc(S(C)(=O)=O)ccc34)n2)C1 [Compound 364] | ≥ 5000 nM | 20 to 200 nM | ≥ 5000 nM | ≥ 5000 nM | 1000 to 5000 nM |
| CC1CCNCC1Nc1ncc(C(F)(F)F)c(-c2c[nH]c3ccccc23)n1 (stereo not drawn) [Compound 373] | ≥ 5000 nM | 20 to 200 nM | ≥ 5000 nM | ≥ 5000 nM | 1000 to 5000 nM |
| N#Cc1ccc2c(-c3nc(NC4CCCNC4)ncc3OC(F)F)c[nH]c2c1 (stereo not drawn) [Compound 301] | ≥ 5000 nM | 20 to 200 nM | ≥ 5000 nM | ≥ 5000 nM | 1000 to 5000 nM |
| CS(=O)(=O)c1ccc2c(-c3nc(NC4CCCN(C5CC5)C4)ncc3C(F)(F)F)c[nH]c2c1 (stereo not drawn) [Compound 381] | ≥ 5000 nM | 20 to 200 nM | ≥ 5000 nM | 200 to 5000 nM | 1000 to 5000 nM |
| CCCc1cnc(N[C@H]2CCCNC2)nc1-c1c[nH]c2c(S(C)(=O)=O)c(C#N)ccc12 [Compound 367] | ≥ 5000 nM | 20 to 200 nM | ≥ 5000 nM | ≥ 5000 nM | 1000 to 5000 nM |
| N#Cc1ccc2c(-c3nc(NC4CNCCC4O)ncc3C(F)(F)F)c[nH]c2c1 (stereo not drawn) [Compound 355] | ≥ 5000 nM | 20 to 200 nM | ≥ 5000 nM | 200 to 5000 nM | 100 to 1000 nM |
| CCc1cnc(N[C@H]2CCCNC2)nc1-c1c[nH]c2c(F)c(C#N)ccc12 [Compound 360] | ≥ 5000 nM | 20 to 200 nM | ≥ 5000 nM | ≥ 5000 nM | 1000 to 5000 nM |
| O=S1(=O)CCn2cc(-c3nc(N[C@H]4CCCNC4)ncc3C(F)(F)F)c3cccc1c32 [Compound 348] | ≥ 5000 nM | 20 to 200 nM | ≥ 5000 nM | ≥ 5000 nM | 100 to 1000 nM |

Now from value to compound, other results behind:

| IC50 (CDK2/Cyclin E1 complex) | IC50 [1] | IC50 (CDK9/Cyclin T1 complex) | IC50 [2] | Structure (SMILES) | IC50 (HCC70 cells) |
| --- | --- | --- | --- | --- | --- |
| ≥ 5000 nM | 200 to 5000 nM | ≥ 5000 nM | ≥ 5000 nM | Fc1cccc(-c2ccc3c(-c4nc(NC5CCCNC5)ncc4C(F)(F)F)c[nH]c3c2)c1 (stereo not drawn) [Compound 345] | 1000 to 5000 nM |
| ≥ 5000 nM | < 20 nM | ≥ 5000 nM | 200 to 5000 nM | O=c1[nH]cc(-c2ccc3c(-c4nc(NC5CCCNC5)ncc4C(F)(F)F)c[nH]c3c2)c(=O)[nH]1 (stereo not drawn) [Compound 333] | 1000 to 5000 nM |
| 200 to 5000 nM | < 20 nM | 200 to 5000 nM | 200 to 5000 nM | COC1CCN(C(=O)c2ccc3c(-c4nc(NC5CCCNC5)ncc4C(F)(F)F)c[nH]c3c2)C1 (stereo not drawn) [Compound 281] | 100 to 1000 nM |
| ≥ 5000 nM | 20 to 200 nM | ≥ 5000 nM | ≥ 5000 nM | N#Cc1ccc2c(-c3nc(N[C@H]4CCC5(CCC5)NC4)ncc3C(F)(F)F)c[nH]c2c1 [Compound 378] | 1000 to 5000 nM |
| 200 to 5000 nM | < 20 nM | ≥ 5000 nM | 200 to 5000 nM | OCc1cccc(-c2ccc3c(-c4nc(NC5CCCNC5)ncc4C(F)(F)F)c[nH]c3c2)n1 (stereo not drawn) [Compound 316] | 100 to 1000 nM |
| 200 to 5000 nM | < 20 nM | 200 to 5000 nM | 200 to 5000 nM | O=C(c1ccc2c(-c3nc(NC4CCCNC4)ncc3C(F)(F)F)c[nH]c2c1)N1CC(O)C(F)(F)C1 (stereo not drawn) [Compound 349] | 100 to 1000 nM |
| 200 to 5000 nM | 20 to 200 nM | 200 to 5000 nM | 200 to 5000 nM | O=C1CCN(C(=O)c2ccc3c(-c4nc(NC5CCCNC5)ncc4C(F)(F)F)c[nH]c3c2)C1 (stereo not drawn) [Compound 302] | 100 to 1000 nM |
| 200 to 5000 nM | 20 to 200 nM | 200 to 5000 nM | 200 to 5000 nM | CC1(O)CCN(S(=O)(=O)c2ccc3c(-c4nc(NC5CCCNC5)ncc4C(F)(F)F)c[nH]c3c2)C1 (stereo not drawn) [Compound 366] | 1000 to 5000 nM |
| 200 to 5000 nM | < 20 nM | ≥ 5000 nM | 200 to 5000 nM | CCN1CCCC(Nc2ncc(C(F)(F)F)c(-c3c[nH]c4cc(S(C)(=O)=O)ccc34)n2)C1 (stereo not drawn) [Compound 298] | 100 to 1000 nM |
| 200 to 5000 nM | < 20 nM | 200 to 5000 nM | 200 to 5000 nM | CC(=O)c1ccc2c(-c3nc(N[C@H]4CCCNC4)ncc3C(F)(F)F)c[nH]c2c1 [Compound 359] | < 100 nM |
| 200 to 5000 nM | < 20 nM | 200 to 5000 nM | 20 to 200 nM | FC(F)Sc1ccc2c(-c3nc(NC4CCCNC4)ncc3C(F)(F)F)c[nH]c2c1 (stereo not drawn) [Compound 374] | < 100 nM |
| 200 to 5000 nM | < 20 nM | 200 to 5000 nM | 200 to 5000 nM | CN(C)S(=O)(=O)c1cccc2c(-c3nc(NC4CCCNC4)ncc3C(F)(F)F)c[nH]c12 (stereo not drawn) [Compound 371] | < 100 nM |
| 200 to 5000 nM | < 20 nM | 200 to 5000 nM | 200 to 5000 nM | FC(F)(F)c1cnc(NC2CCCNC2)nc1-c1c[nH]c2cc(-c3ccc4[nH]cnc4c3)ccc12 (stereo not drawn) [Compound 313] | 100 to 1000 nM |
| 200 to 5000 nM | 20 to 200 nM | 200 to 5000 nM | 200 to 5000 nM | CC1CCNCC1Nc1ncc(C(F)(F)F)c(-c2c[nH]c3ccccc23)n1 (stereo not drawn) [Compound 372] | 100 to 1000 nM |
| 200 to 5000 nM | < 20 nM | 200 to 5000 nM | 200 to 5000 nM | FC(F)(F)c1cnc(N[C@H]2CCCNC2)nc1-c1c[nH]c2cc(-c3nccs3)ccc12 [Compound 332] | < 100 nM |
| 200 to 5000 nM | 20 to 200 nM | 200 to 5000 nM | 200 to 5000 nM | O=C1CCc2ccc(-c3ccc4c(-c5nc(NC6CCCNC6)ncc5C(F)(F)F)c[nH]c4c3)cc2N1 (stereo not drawn) [Compound 334] | 100 to 1000 nM |
| 200 to 5000 nM | < 20 nM | 200 to 5000 nM | 200 to 5000 nM | CN(C)S(=O)(=O)c1ccc2c(-c3nc(NC4CCCNC4)ncc3C(F)(F)F)c[nH]c2c1 (stereo not drawn) [Compound 357] | 1000 to 5000 nM |
| 200 to 5000 nM | < 20 nM | 200 to 5000 nM | 200 to 5000 nM | [O-][S+](c1ccc2c(-c3nc(NC4CCCNC4)ncc3C(F)(F)F)c[nH]c2c1)C(F)F (stereo not drawn) [Compound 380] | < 100 nM |
| 200 to 5000 nM | < 20 nM | 200 to 5000 nM | 200 to 5000 nM | O=S(=O)(CF)c1ccc2c(-c3nc(NC4CCCNC4)ncc3C(F)(F)F)c[nH]c2c1 (stereo not drawn) [Compound 365] | 100 to 1000 nM |
| 200 to 5000 nM | < 20 nM | ≥ 5000 nM | 200 to 5000 nM | OCc1ncccc1-c1ccc2c(-c3nc(NC4CCCNC4)ncc3C(F)(F)F)c[nH]c2c1 (stereo not drawn) [Compound 323] | 100 to 1000 nM |
| 200 to 5000 nM | < 20 nM | 200 to 5000 nM | 200 to 5000 nM | N#Cc1ccc2c(-c3nc(N[C@@H]4CNCC[C@H]4F)ncc3C(F)(F)F)c[nH]c2c1 [Compound 351] | < 100 nM |
